The values that follow come from patent US8883789B2, “Piperazine derivatives and their use as positive allosteric modulators of mGluR5 receptors” (Boehringer Ingelheim International GmbH, priority 2011, dated 2014).

Structures are written as SMILES.

T1 sequence (P41594 21-1212): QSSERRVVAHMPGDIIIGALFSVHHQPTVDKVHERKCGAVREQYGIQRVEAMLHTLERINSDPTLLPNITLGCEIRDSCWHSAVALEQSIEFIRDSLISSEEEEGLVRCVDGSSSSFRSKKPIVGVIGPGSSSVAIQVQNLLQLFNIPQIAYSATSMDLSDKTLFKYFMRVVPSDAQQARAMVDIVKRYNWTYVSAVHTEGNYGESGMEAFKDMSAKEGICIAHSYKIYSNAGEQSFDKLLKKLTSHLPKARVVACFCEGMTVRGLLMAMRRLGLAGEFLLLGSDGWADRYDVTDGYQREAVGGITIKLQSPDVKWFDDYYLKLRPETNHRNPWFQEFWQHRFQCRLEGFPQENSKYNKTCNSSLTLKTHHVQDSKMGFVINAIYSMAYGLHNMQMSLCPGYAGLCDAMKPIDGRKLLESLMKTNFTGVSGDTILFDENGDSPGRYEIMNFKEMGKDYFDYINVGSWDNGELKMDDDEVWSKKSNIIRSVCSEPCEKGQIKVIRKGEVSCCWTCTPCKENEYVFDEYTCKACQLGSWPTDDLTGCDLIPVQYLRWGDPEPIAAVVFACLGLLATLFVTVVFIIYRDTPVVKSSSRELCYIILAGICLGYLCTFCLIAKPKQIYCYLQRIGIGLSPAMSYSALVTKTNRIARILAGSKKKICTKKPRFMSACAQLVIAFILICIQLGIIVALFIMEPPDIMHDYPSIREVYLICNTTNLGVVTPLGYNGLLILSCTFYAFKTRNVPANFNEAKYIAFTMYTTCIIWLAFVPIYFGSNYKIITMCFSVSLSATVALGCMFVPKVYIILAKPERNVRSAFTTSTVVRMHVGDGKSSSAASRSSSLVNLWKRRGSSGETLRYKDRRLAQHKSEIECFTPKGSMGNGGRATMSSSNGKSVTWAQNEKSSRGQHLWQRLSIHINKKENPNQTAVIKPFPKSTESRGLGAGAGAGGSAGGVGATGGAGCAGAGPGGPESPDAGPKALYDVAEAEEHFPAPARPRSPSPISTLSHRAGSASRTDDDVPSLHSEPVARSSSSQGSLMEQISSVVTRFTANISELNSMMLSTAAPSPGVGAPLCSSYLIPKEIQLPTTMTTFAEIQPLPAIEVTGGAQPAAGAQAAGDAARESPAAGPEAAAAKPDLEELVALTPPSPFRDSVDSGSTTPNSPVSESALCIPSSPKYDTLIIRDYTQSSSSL

The assay has as its target T1, human recombinant mGluR5 (Homo sapiens, UniProt P41594).
T1 construct: expressed in transfected cells; hygromycin and geneticin selection
Kind of assay: positive modulation of mGluR5, calcium based FLIPR assay. The note with it: HEK 293 cell line expressing human recombinant mGluR5; Ca2+ peak height after glutamate at approximately 5% basal stimulation; nonlinear regression. Here is the method: The positive modulation of mGluR5 is measured in a HEK 293 cell line expressing human recombinant mGluR5 and is detected with calcium based FLIPR assay. The cells are cultured with DMEM supplemented with 10% FCS, 2 μg/mL tetracycline, 100 μg/mL hygromycin and 500 μg/mL geneticin. The cell culture media is exchanged for tetracycline-free cell culture media 3-7 days before the assay. One day before the assay the cell culture medium is exchanged to DMEM without glutamine and phenol red and supplemented with 10% FCS, 100 μg/mL hygromycin and 500 μg/mL geneticin. On the assay day, the medium of the subconfluent cultures is removed and the cells are detached by addition of 2.5 ml EDTA (0.02%) per 175 cm2 culture flask for 1 minute. The cells are resuspend in Ringer solution (140 mM NaCl, 5 mM KCl, 2.5 mM CaCl2, 1.5 mM MgCl2, 5 mM Glucose, 10 mM Hepes; adjusted to pH 7.4 with NaOH), pooled and Ringer solution added to adjust the volume to 50 mL. The cell suspension is centrifuged for […] at 1500 U/min (425 g). The supernatant is removed and the cells washed a second time with 50 ml fresh Ringer solution and centrifuged again as before. The supernatant is again removed and the pellet resuspended in Ringer solution to 1,000,000 cells/ml (1×10^6 cells/mL). The cells are plated onto BD BioCoat Poly-D-Lysine 384 well plates (20.000 cells/well; 20 μl/well). The lid covered plates are then incubated until use at 37° C./10% CO2. For dye loading, 20 μl of Calcium-4 assay kit solution (prepared according to the manufacturer's description in Ringer solution) are added to the cells and the plates are incubated for 80 min 37° C. and then 10 min at room temperature.
Controls, Compound Dilution and Assay Execution:
Each assay plate contained wells with “high” and “low” controls:
Low controls 1% DMSO/ringer solution+basal glutamate activation (defined as 100% CTL).
High controls 10 μM CDPPB+basal glutamate activation (defined as 200% CTL).
Test compounds are dissolved and diluted in DMSO to 100-fold the desired concentrations. In a second step, the compounds are diluted in Ringer solution such that the compounds are 4-fold more concentrated than the desired final assay concentration. The final DMSO concentration was 1%.
20 μl of each compound solution are then transferred to the assay plate and the Ca2+ kinetic is measured to determine any intrinsic compound activity. After 5 min incubation in the FLIPR device, the second stimulation with 20 μl of glutamate in Ringer solution (glutamate concentration adjusted to approximately 5% basal stimulation of the maximal possible glutamate effect) is added and the kinetic Ca2+ response of the wells was measured for the modulation effect.
The peak height of the Ca release related fluorescence signal (9-66) is used for the EC50.
The EC50 of the modulation is calculated over a nonlinear regression with GraphPad Prism (Table 1).
Usually EC50 stands for the concentration needed to bring the measured effect to its halfway point. Turning to `CC1CN(C(=O)c2ncn(-c3cccc(Cl)c3)n2)CCN1C(=O)c1ccc2ccn(C)c2c1` (centres unmarked) [Example 222], the concentration for a half-maximal effect (EC50) was 294 nM. Consider `CC(C)Oc1nc(C(=O)N2CCN(C(=O)c3ncn(-c4ccccc4)n3)C(C)(C)C2)cc2ccccc12` [Example 118], for which the EC50 is 50 nM. Turning to `CC1CN(C(=O)c2ncn(-c3cccc(Cl)c3)n2)CCN1C(=O)c1sc2ccccc2c1Cl` (centres unmarked) [Example 226], the EC50 came to 600 nM. With `CCC1(CC)CN(C(=O)c2cccc(Cl)c2)CCN1C(=O)c1ncn(-c2ccccc2)n1` [Example 313] the figure was 931 nM; with `COc1cc(OC)cc(C(=O)N2CCN(C(=O)c3ncn(-c4cccc(Cl)c4)n3)C(C)C2)c1` (centres unmarked) [Example 280], 476 nM. On to `CC1(C)CN(C(=O)c2cc(Cl)cc(C(F)(F)F)c2)CCN1C(=O)c1ncn(-c2ccccc2)n1` [Example 145], for which the EC50 was found to be 120 nM. With `COCc1c(C(=O)N2CCN(C(=O)c3ncn(-c4ccccc4)n3)C(C)(C)C2)oc2ccccc12` [Example 107] the figure was 108 nM; with `CC1(C)CN(C(=O)c2cccc(COc3ccccc3)c2)CCN1C(=O)c1ncn(-c2cccc(Cl)c2)n1` [Example 74], 170 nM. As for `COc1cccc(C(=O)N2CCN(C(=O)c3ncn(-c4cccc(Cl)c4)n3)C[C@H]2C)n1` [Example 248, (R)-{4-[1-(3-Chloro-phenyl)-1H-[1,2,4]triazole-3-carbonyl]-2-methyl-piperazin-1-yl}-(6-methoxy-pyridin-2-yl)-methanone], the figure is 169 nM; as for `Cc1c(C(=O)N2CCN(C(=O)c3ncn(-c4ccccc4)n3)CC2C)oc2ccc(F)cc12` (centres unmarked) [Example 241], 987 nM; as for `CC(C)c1cccc(C(=O)N2CCN(C(=O)c3ncn(-c4ccccc4)n3)C(C)(C)C2)c1` [Example 96, [4-(3-Isopropyl-benzoyl)-2,2-dimethyl-piperazin-1-yl]-(1-phenyl-1H-[1,2,4]triazol-3-yl)-methanone], 25 nM.

For `Cc1oc2ccc(Br)cc2c1C(=O)N1CCN(C(=O)c2ncn(-c3ccccc3)n2)C(C)(C)C1` [Example 100], the concentration for a half-maximal effect (EC50) stood at 29 nM. As for `CC1CN(C(=O)c2ncn(-c3cccc(Cl)c3)n2)CCN1C(=O)c1cccc(-c2nccs2)c1` (centres unmarked) [Example 218], the figure is 422 nM; as for `CC1(C)CN(C(=O)c2cc(Cl)ccc2F)CCN1C(=O)c1ncn(-c2cccc(Cl)c2)n1` [Example 73], 162 nM; as for `Cc1noc(C)c1-c1cccc(C(=O)N2CCN(C(=O)c3ncn(-c4cccc(Cl)c4)n3)C(C)(C)C2)n1` [Example 90, [1-(3-Chloro-phenyl)-1H-[1,2,4]triazol-3-yl]-{4-[6-(3,5-dimethyl-isoxazol-4-yl)-pyridine-2-carbonyl]-2,2-dimethyl-piperazin-1-yl]-methanone], 38 nM.

With `CC(C)c1cccc(C(=O)N2CCN(C(=O)c3nnn(-c4ccccc4)n3)C(C)(C)C2)c1` [Example 167], the EC50 came out at 15 nM. With `COc1cccc(C(=O)N2CCN(C(=O)c3ncn(-c4cccc(C)c4)n3)C[C@H]2C)n1` [Example 251, (R)-(6-Methoxy-pyridin-2-yl)-[2-methyl-4-(1-m-tolyl-1H-[1,2,4]-triazole-3-carbonyl)-piperazin-1-yl]-methanone] the figure was 886 nM. As to `CC1(C)CN(C(=O)c2cccc3c2OCO3)CCN1C(=O)c1ncn(-c2cccc(Cl)c2)n1` [Example 48], the 50% effective concentration (EC50) turned out to be 127 nM. As to `CC1CN(C(=O)c2cccc3c2OCO3)CCN1C(=O)c1ncn(-c2cccc(Cl)c2)n1` (centres unmarked) [Example 286], the half-maximal effective concentration (EC50) turned out to be 1330 nM. As to `COc1cc(Cl)cc(C(=O)N2CCN(C(=O)c3nnn(-c4cccc(F)c4)n3)C(C)(C)C2)n1` [Example 169, [4-(4-Chloro-6-methoxy-pyridine-2-carbonyl)-2,2-dimethyl-piperazin-1-yl]-[2-(3-fluoro-phenyl)-2H-tetrazol-5-yl]-methanone], the 50% effective concentration (EC50) is 27 nM. With `CC1(C)CN(C(=O)c2cccc(C(F)(F)F)n2)CCN1C(=O)c1nnn(-c2ccccc2)n1` [Example 168] the figure was 15 nM; with `Cc1c(C(=O)N2CCN(C(=O)c3ncn(-c4cccc(Cl)c4)n3)C(C)(C)C2)oc2c(F)cccc12` [Example 53], 77 nM; with `COc1ccc2oc(C)c(C(=O)N3CCN(C(=O)c4ncn(-c5ccccc5)n4)CC3C)c2c1` (centres unmarked) [Example 242], 114 nM.

On to `CC1CN(C(=O)c2sc3ccccc3c2Cl)CCN1C(=O)c1ncn(-c2cccc(Cl)c2)n1` (centres unmarked) [Example 271], for which the concentration for a half-maximal effect (EC50) came to 621 nM.

`Cn1nccc1-c1cccc(C(=O)N2CCN(C(=O)c3ncn(-c4cccc(Cl)c4)n3)C(C)(C)C2)n1` [Example 91]: the EC50 worked out at 113 nM.

On to `COc1ccc2oc(C)c(C(=O)N3CCN(C(=O)c4ncn(-c5ccccc5)n4)C(C)C3)c2c1` (centres unmarked) [Example 291], for which the EC50 was 47 nM. With `CC1CN(C(=O)c2ncn(-c3cccc(Cl)c3)n2)CCN1C(=O)c1cc2c(Cl)cccc2s1` (centres unmarked) [Example 223] the figure was 330 nM; with `CC1CN(C(=O)c2ncn(-c3cccc(F)c3)n2)CCN1C(=O)c1cc(Cl)c2c(c1)OCCO2` (centres unmarked) [Example 234], 301 nM; with `CC1(C)CN(C(=O)c2cccc(-c3ccncc3)c2)CCN1C(=O)c1ncn(-c2cccc(Cl)c2)n1` [Example 30], 115 nM. As for `CC(C)c1cccc(C(=O)N2CCN(C(=O)c3ncn(-c4cccc(Cl)c4)n3)C(C)(C)C2)c1` [Example 11, [1-(3-Chloro-phenyl)-1H-[1,2,4]-triazol-3-yl]-[4-(3-isopropyl-benzoyl)-2,2-dimethyl-piperazin-1-yl]methanone], the figure is 19 nM. As for `CC1(C)CN(C(=O)c2cccc(C3CC3)c2)CCN1C(=O)c1ncn(-c2ccccc2)n1` [Example 136], the figure is 52 nM; as for `CC1(C)CN(C(=O)c2cc(Cl)c3c(c2)OCCO3)CCN1C(=O)c1nnn(-c2cccc(F)c2)n1` [Example 170], 37 nM. As to `COc1cccc(C(=O)N2CCN(C(=O)c3ncn(-c4ccccc4)n3)CC2C)n1` (centres unmarked) [Example 247], the EC50 turned out to be 373 nM. With `COc1cccc(C(=O)N2C[C@@H](C)N(C(=O)c3ncn(-c4cccc(C)c4)n3)[C@@H](C)C2)n1` [Example 302, (2R*,6S*)-4-[(6-methoxypyridin-2-yl)carbonyl]-2,6-dimethyl-1-{[1-(3-methylphenyl)-1H-1,2,4-triazol-3-yl]carbonyl}piperazine] the figure was 166 nM; with `CC1(C)CN(C(=O)c2noc(-c3ccccc3)n2)CCN1C(=O)c1ncn(-c2ccccc2)n1` [Example 139], 314 nM; with `COc1cc(Br)cc(C(=O)N2CCN(C(=O)c3ncn(-c4cccc(Cl)c4)n3)C(C)(C)C2)n1` [Example 12], 19 nM.

For the compound `CC1(C)CN(C(=O)c2cnc3[nH]ccc3c2)CCN1C(=O)c1ncn(-c2cccc(Cl)c2)n1` [Example 59], the EC50 turned out to be 1080 nM. With `CC1(C)CN(C(=O)c2cccc(Cl)c2)CCN1C(=O)c1ncn(-c2cccc(Cl)c2)n1` [Example 173, [4-(3-Chloro-benzoyl)-2,2-dimethyl-piperazin-1-yl]-[1-(3-chloro-phenyl)-1H-[1,2,4]triazol-3-yl]-methanone] the figure was 19 nM; with `CC1(C)CN(C(=O)c2nccc(C(F)(F)F)n2)CCN1C(=O)c1ncn(-c2ccccc2)n1` [Example 147], 613 nM; with `COc1cccc(C(=O)N2CCN(C(=O)c3ncn(-c4ccccc4)n3)C(C)(C)C2)c1` [Example 122], 213 nM.

For `COc1nc(C(=O)N2CCN(C(=O)c3ncn(-c4ccc(F)c(C)c4)n3)C(C)(C)C2)cc2ccccc12` [Example 160, [1-(4-Fluoro-3-methyl-phenyl)-1H-[1,2,4]triazol-3-yl]-[4-(1-methoxy-isoquinoline-3-carbonyl)-2,2-dimethyl-piperazin-1-yl]-methanone], the EC50 turned out to be 207 nM. With `CC1(C)CN(C(=O)c2cc3ccccc3c(C3CC3)n2)CCN1C(=O)c1ncn(-c2ccccc2)n1` [Example 203] the figure was 62 nM; with `Cc1c(C(=O)N2CCN(C(=O)c3ncn(-c4cccc(Cl)c4)n3)CC2C)oc2ccccc12` (centres unmarked) [Example 228], 404 nM. With `CC1(C)CN(C(=O)c2cccc(Cl)c2)CCN1C(=O)c1nnn(-c2ccccc2F)n1` [Example 196] the figure was 156 nM.
